Data reported in US6696474B2, “Antidiabetic agents” (Warner Lambert Co. LLC., priority 2002, dated 2004).
Read-outs that look alike come from different tables or passages of the source.

Assays:
[1] = molecular target: T1, PPAR-γ (Mus musculus, UniProt P37238); assay: 3T3-L1 transient reporter assay (AD3T3-L1 reporter); assay type: cell-based, murine; conditions: for EC50: 3T3-L1 cells, aP2 promoter luciferase reporter, 48 hours
T1 construct: endogenous in cells; host or cells: 3T3-L1 preadipocytes, differentiated for about 3 days with methyl isobutylxanthine, dexamethasone and insulin
T1 sequence (P37238 1-505): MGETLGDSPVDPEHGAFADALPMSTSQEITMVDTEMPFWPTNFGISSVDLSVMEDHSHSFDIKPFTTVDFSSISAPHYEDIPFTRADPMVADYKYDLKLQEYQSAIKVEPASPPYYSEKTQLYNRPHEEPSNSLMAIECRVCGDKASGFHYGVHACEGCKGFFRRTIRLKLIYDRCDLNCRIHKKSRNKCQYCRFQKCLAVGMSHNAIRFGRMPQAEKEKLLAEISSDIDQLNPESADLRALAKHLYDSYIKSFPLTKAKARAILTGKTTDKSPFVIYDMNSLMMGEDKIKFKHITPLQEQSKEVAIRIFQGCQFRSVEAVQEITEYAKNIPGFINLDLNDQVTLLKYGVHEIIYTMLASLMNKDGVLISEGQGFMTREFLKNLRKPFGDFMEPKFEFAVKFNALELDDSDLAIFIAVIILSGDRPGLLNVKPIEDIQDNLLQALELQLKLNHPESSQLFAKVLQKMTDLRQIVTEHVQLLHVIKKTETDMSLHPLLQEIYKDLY
Description: This assay is used to determine the potential of putative PPAR-γ ligands to activate the promoter/enhancer of the murine aP2 gene. 3T3-L1 preadipocytes are cultured on collagen coated plates in DMEM containing 10% Calf serum for 48 hours post-confluence. The cells are then cultured for approximately 3 days in DMEM containing 10% Fetal Bovine Serum (FBS), 0.5-mM methyl isobutylxanthine, 0.25 μM dexamethasone, and 1 μg/ml of insulin. Cells are detached from the plates with Trypsin-EDTA and resuspended in Phosphate Buffered Saline (PBS).
The reporter construct used in this assay is comprised of the —5.4 Kb 5′ flanking region of the murine aP2 gene inserted into the cloning site of the TKpGL3 luciferase vector. Transfection efficiency is controlled by co-transfection of the reference plasmid CMV-β-galactosidase. The reporter construct and the reference plasmid are transiently co-transfected into the cells by electroporation. The transfected cells are plated into collagen coated 96-well plates and cultured overnight. Cells are then incubated for 48 hours with the test compounds and then harvested. The lysates are measured for luciferase and β-galactosidase activities using the Dual-Light® luciferase kit from Tropix on a EG&G Berthold MicroLumat LB96P luminometer.

[2] = test system: Ob/Ob diabetic mouse model; assay: Blood glucose measurement (Glucose Δ) in Ob/Ob diabetic mouse model; assay type: in vivo
Description: Glucose is obtained 4 hours post dose via tail vein stick (5 μl whole blood) in awake, 4 hour fasted animals. Blood is drawn by capillary action into a glucose cuvette and read in a HemoCue Glucose Analyzer (Ryan Diagnostics). Blood is diluted 1:2 with saline if glucose levels are greater than 400 mg/dl (meter high range) and results multiplied by two.

[3] = 3T3-L1, maximal response relative to rosiglitazone, read-out: AD3T3-L1 Reporter Max. % Rosi (maximal response)

| SMILES | Emax ([1]; 3T3-L1, read-out: AD3T3-L1 Reporter Max. % Rosi (maximal response)) | EC50 [1] | Emax [1, 3] | In VIVO Δ Glucose @ 20 mg/kg ([2]; 20 mg/kg, glucose 4 hours post dose) | In VIVO % Rosiglitazone ([2]; 20 mg/kg, glucose change relative to rosiglitazone) | Blood glucose in Ob/Ob diabetic mouse model ([2]; Ob/Ob diabetic mouse, in 3 days at 20 mg/Kg) |
| --- | --- | --- | --- | --- | --- | --- |
| Cc1oc(-c2ccccc2)nc1CCCC#CCC(C(=O)O)n1cccc1 (stereo not drawn) [Example 1-11] | 108% | 89 nM |  |  |  |  |
| Cc1oc(-c2ccccc2)nc1CCCC#CCC(C(=O)O)c1cccs1 (stereo not drawn) [Example 1-13, 8-(5-Methyl-2-phenyl-oxazol-4-yl)-2-thiophen-2-yl-oct-4-ynoic Acid] |  | 303 nM | 97% |  |  |  |
| Cc1oc(-c2ccccc2)nc1CCCC#CCC(C(=O)O)n1nccn1 (stereo not drawn) [Example 1-15, 8-(5-Methyl-2-phenyl-oxazol-4-yl)-2-[1,2,3]triazol-2-yl-oct-4-ynoic Acid] |  | 15 nM | 103% | -258 mg/dL | 180% | Normalized blood glucose |
